Biological target: T1, hDMT1 (SLC11A2) (Homo sapiens, UniProt P49281)
T1 construct: DsRED; expressed in transfected cells
T1 sequence (P49281 1-568): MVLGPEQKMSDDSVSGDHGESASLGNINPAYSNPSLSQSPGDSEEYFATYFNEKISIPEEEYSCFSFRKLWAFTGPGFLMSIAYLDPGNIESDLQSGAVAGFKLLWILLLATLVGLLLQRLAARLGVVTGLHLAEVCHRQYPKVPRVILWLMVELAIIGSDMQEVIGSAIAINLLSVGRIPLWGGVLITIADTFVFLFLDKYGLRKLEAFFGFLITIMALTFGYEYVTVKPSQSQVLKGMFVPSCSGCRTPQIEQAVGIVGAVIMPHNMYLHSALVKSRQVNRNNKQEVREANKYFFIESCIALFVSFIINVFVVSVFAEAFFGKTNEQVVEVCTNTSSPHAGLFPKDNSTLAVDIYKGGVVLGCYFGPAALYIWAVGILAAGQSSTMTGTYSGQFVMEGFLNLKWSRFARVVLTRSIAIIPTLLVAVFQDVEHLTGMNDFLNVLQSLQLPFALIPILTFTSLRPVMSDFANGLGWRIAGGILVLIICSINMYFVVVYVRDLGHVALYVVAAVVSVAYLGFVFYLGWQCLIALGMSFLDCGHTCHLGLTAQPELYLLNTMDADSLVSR
Experiment: radioactive iron uptake assay in HEK293 cells stably overexpressing hDMT1
Format: cell-based
Details: for Ligand efficiency: from IC50 of radioactive iron uptake in HEK293-hDMT1; for IC50: radioactive iron 1 μM, 15 min incubation, extracellular pH 5.5, HEK293 stably overexpressing hDMT1; for inhibition at 10 µM: HEK293, 10 μM compound, radioactive iron uptake, pH 5.5

Row | Ligand efficiency | IC50 | inhibition at 10 µM | SMILES
1 | 0.25 |  |  | Cc1cc(C)c(CSC(=N)N)c(C)c1CSC(=N)N [Compound 2, reference compound]
2 | 0.44 | 10 ± 0.4 µM |  | Cc1cc(=O)[nH]c(-n2nc(C)c(C)c2C)n1 [Compound 6]
3 | 0.40 | 4.2 ± 0.4 µM |  | CCc1c(C)nn(-c2nc(C)cc(=O)[nH]2)c1C [Compound 7]
4 |  |  | < 20% | Cc1cc(=O)[nH]c(-n2nc(C)c(-c3ccccc3)c2C)n1 [Compound 8]
5 |  |  | < 20% | Cc1cc(=O)[nH]c(-n2nc(C)c(Cc3ccccc3)c2C)n1 [Compound 9]
6 |  |  | < 20% | Cc1cc(=O)[nH]c(-n2nc(C(C)(C)C)cc2C)n1 [Compound 10]
7 |  |  | < 20% | Cc1cc(=O)[nH]c(-n2nc(-c3ccccc3)cc2C)n1 [Compound 11]
8 |  |  | < 20% | Cc1cc(=O)[nH]c(-n2nc3c(c2C)CCC3)n1 [Compound 12]
9 |  |  | < 20% | Cc1cc(=O)[nH]c(-n2nc3c(c2C)COCC3)n1 [Compound 14]
10 |  |  | < 20% | Cc1cc(=O)[nH]c(-n2nc3c(c2C)CNCC3)n1 [Compound 15]
11 | 0.45 | 3.8 ± 0.2 µM |  | CCc1cc(CC)n(-c2nc(C)cc(=O)[nH]2)n1 [Compound 16]
12 | 0.42 | 2.26 ± 0.3 µM |  | CCc1c2c(nn1-c1nc(C)cc(=O)[nH]1)CCCC2 [Compound 17]
13 | 0.42 | 0.94 ± 0.2 µM |  | Cc1cc(=O)[nH]c(-n2nc3c4c2CCCC4CCC3)n1 (stereo not shown) [Compound 18]
14 | 0.43 | 12.5 ± 0.3 µM |  | Cc1cc(C)n(-c2nc(C)c(C)c(O)n2)n1 [Compound 19]
15 |  |  | < 20% | Cc1cc(C)nc(-n2nc(C)cc2C)n1 [Compound 20]
16 |  |  | < 20% | CCc1cc(=O)n(-c2nc(C)cc(=O)[nH]2)[nH]1 [Compound 21]
17 |  |  | < 20% | Cc1cc(=O)[nH]c(-n2[nH]c(C)c(Cc3ccccc3)c2=O)n1 [Compound 22]
18 |  |  | < 20% | CCc1cc(=O)[nH]c(-n2[nH]c(C)cc2=O)n1 [Compound 24]
19 |  |  | < 20% | CCOC(=O)c1cnc(-n2[nH]c(C)cc2=O)[nH]c1=O [Compound 25]
